This note sets out measurements from patent US20070105865A1, “Substituted bicyclic quinazolin-4-ylamine derivatives” (Neurogen Corporation, priority 2003, published 2007).

Where a name gives a salt, the structure may show the parent alone.

The target in this assay is T1, human capsaicin receptor (Homo sapiens, UniProt Q8NER1).
T1 construct: transfected with the pBK-CMV expression construct encoding the full length human capsaicin receptor using standard methods; expressed in transfected cells
Briefly: Calcium mobilization assay (Example 6). It is filed as cell-based. The conditions noted are these: determined as described in Example 6; cells expressing human capsaicin receptor, capsaicin response. The procedure:
Human embryonic kidney (HEK293) cells were transfected with the pBK-CMV expression construct encoding the full length human capsaicin receptor using standard methods. The transfected cells were selected for two weeks in media containing G418 (400 μg/ml) to obtain a pool of stably transfected cells. Independent clones were isolated from this pool by limiting dilution to obtain clonal stable cell lines for use in subsequent experiments.
This Example illustrates a representative calcium mobilization assay for use in monitoring the response of cells expressing capsaicin receptor to capsaicin and other vanilloid ligands of the capsaicin receptor, as well as for evaluating test compounds for agonist and antagonist activity.
Cells transfected with expression plasmids (as described in Example 4) and thereby expressing human capsaicin receptor are seeded and grown to 70-90% confluency in FALCON black-walled, clear-bottomed 96-well plates (#3904, BECTON-DICKINSON, Franklin Lakes, N.J.). The culture medium is emptied from the 96 well plates and FLUO-3 AM calcium sensitive dye (Molecular Probes, Eugene, Oreg.) is added to each well (dye solution: 1 mg FLUO-3 AM, 440 μL DMSO and 440 μl 20% pluronic acid in DMSO, diluted 1:250 in Krebs-Ringer HEPES (KRH) buffer (25 mM HEPES, 5 mM KCl, 0.96 mM NaH2PO4, 1 mM MgSO4, 2 mM CaCl2, 5 mM glucose, 1 mM probenecid, pH 7.4), 50 μl diluted solution per well). Plates are covered with aluminum foil and incubated at 37° C. for 1-2 hours in an environment containing 5% CO2. After the incubation, the dye is emptied from the plates, and the cells are washed once with KRH buffer, and resuspended in KRH buffer.
Agonist (e.g., olvanil, capsaicin or RTX)-induced calcium mobilization is monitored using either FLUOROSKAN ASCENT (Labsystems, Franklin, Mass.) or FLIPR (fluorometric imaging plate reader system, Molecular Devices, Sunnyvale, Calif.) instruments. Varying concentrations of the antagonists ruthenium red or capsazepine (RBI; Natick, Mass.) are added to cells concurrently with agonist (e.g., 25-50 nM capsaicin). For agonist-induced calcium responses, data obtained between 30 and 60 seconds after agonist application are used to generate the IC50 values. KALEIDAGRAPH software (Synergy Software, Reading, Pa.) is used to fit the data to the equation: y=a*(1/(1+(b/x)^c)) to determine the IC50 for the response. In this equation, y is the maximum fluorescence signal, x is the concentration of the agonist or antagonist, a is the Emax, b corresponds to the IC50 value and c is the Hill coefficient.
To measure the ability of a test compound to antagonize (inhibit) the response of cells expressing capsaicin receptors to capsaicin or other vanilloid agonist, the IC50 of capsaicin is first determined. An additional 20 μl of KRH buffer and 1 μl DMSO is added to each well of cells, prepared as described above. 100 μl capsaicin in KRH buffer is automatically transferred by the FLIPR instrument to each well. An 8-point concentration response curve, with final capsaicin concentrations of 1 nM to 3 μM, is used to determine capsaicin IC50.
Test compounds are dissolved in DMSO, diluted in 20 μl KRH buffer so that the final concentration of test compounds in the assay well is between 1 μM and 5 μM, and added to cells prepared as described above. The 96 well plates containing prepared cells and test compounds are incubated in the dark, at room temperature for 0.5 to 6 hours. It is important that the incubation not continue beyond 6 hours. Just prior to determining the fluorescence response, 100 μl capsaicin in KRH buffer at twice the IC50 concentration determined from the concentration response curve is automatically added by the FLIPR instrument to each well of the 96 well plate for a final sample volume of 200 μl and a final capsaicin concentration equal to the IC50. The final concentration of test compounds in the assay wells is between 1 μM and 5 μM. […]

T1 sequence (Q8NER1 whole entry): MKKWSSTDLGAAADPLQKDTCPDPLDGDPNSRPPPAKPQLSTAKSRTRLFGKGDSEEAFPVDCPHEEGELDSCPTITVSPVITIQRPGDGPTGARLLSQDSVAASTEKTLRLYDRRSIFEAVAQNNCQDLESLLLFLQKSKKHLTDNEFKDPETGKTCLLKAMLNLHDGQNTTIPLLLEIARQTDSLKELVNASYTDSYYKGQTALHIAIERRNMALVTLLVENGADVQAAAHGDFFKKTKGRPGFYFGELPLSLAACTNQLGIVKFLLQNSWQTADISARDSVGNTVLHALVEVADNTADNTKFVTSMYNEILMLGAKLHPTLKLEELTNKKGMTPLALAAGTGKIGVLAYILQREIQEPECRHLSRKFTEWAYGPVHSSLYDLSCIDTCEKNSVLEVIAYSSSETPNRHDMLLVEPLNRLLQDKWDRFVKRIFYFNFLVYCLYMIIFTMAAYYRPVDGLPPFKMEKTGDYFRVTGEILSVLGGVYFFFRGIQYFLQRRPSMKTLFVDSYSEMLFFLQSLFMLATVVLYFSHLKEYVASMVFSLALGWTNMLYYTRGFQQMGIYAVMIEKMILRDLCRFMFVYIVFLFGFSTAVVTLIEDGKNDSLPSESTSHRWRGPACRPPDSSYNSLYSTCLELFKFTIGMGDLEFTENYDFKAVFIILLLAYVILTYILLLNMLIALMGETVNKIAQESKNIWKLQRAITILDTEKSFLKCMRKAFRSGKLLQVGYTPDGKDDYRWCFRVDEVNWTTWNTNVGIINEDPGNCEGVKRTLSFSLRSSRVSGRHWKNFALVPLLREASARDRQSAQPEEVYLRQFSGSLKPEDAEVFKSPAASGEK

As for `CCOCc1nc(Nc2ccc3c(c2)N(C)CCO3)c2ccc(-c3ncccc3Cl)nc2n1` [Compound 6], the IC50 – broadly, the midpoint of a concentration-inhibition curve – was < 1000 nM. As for `COCc1nc(Nc2ccc3c(c2)NCCC3)c2ccc(-c3ncccc3C(F)(F)F)nc2n1` [Compound 5, [2-Methoxymethyl-7-(3-trifluorometyl-pyridin-2-yl)-pyrido[2,3-d]pyrimidin-4-yl]-(1,2,3,4-tetrahydro-quinolin-7-yl)-amine], the figure is < 1000 nM.

With `CN1Cc2cc(Nc3ncnc4cc(-c5ncccc5C(F)(F)F)ccc34)ccc2C(C)(C)C1` [Compound 3, [7-(3-Trifluoromethyl-pyridin-2-yl)-quinazolin-4-yl]-(2,4,4-trimethyl-1,2,3,4-tetrahydro-isoquinolin-7-yl)-amine hydrochloride], the IC50 was < 1000 nM.

Take `CCOCc1nc(Nc2ccc3c(c2)N(C(C)=O)CC3(C)C)c2ccc(-c3ncccc3C)nc2n1` [Compound 7, 1-{6-[2-Ethoxymethyl-7-(3-methyl-pyridin-2-yl)-pyrido[2,3-d]pyrimidin-4-ylamino]-3,3-dimethyl-2,3-dihydro-indol-1-yl}-ethanone]: the IC50 was < 1000 nM.

`CC(C)COCc1nc(Nc2ccc3c(c2)NCCC3(C)C)c2ccc(-c3ncccc3C(F)(F)F)nc2n1` [Compound 4, (4,4-Dimethyl-1,2,3,4-tetrahydro-quinolin-7-yl)-[2-isobutoxymethyl-7-(3-trifluoromethyl-pyridin-2-yl)pyrido[2,3-d]pyrimidin-4-yl]-amine hydrochloride]: the IC50 is < 1000 nM. The same measure for `CN1Cc2cc(Nc3ncnc4cc(-c5ncccc5Cl)cnc34)ccc2C(C)(C)C1` [Compound 9, [7-(3-Chloro-pyridin-2-yl)-pyrido[3,2-d]pyrimidin-4-yl]-(2,4,4-trimethyl-1,2,3,4-tetrahydro-isoquinolin-7-yl)-amine hydrochloride]: < 1000 nM; for `COCc1nc(Nc2ccc3c(c2)N(C)CCC3)c2ccc(-c3ncccc3Cl)nc2n1` [Compound 1, [7-(3-Chloro-pyridin-2-yl)-2-methoxymethyl-pyrido[2,3-d]pyrimidin-4-yl]-(1-methyl-1,2,3,4-tetrahydro-quinolin-7-yl)-amine]: < 1000 nM. The same measure for `COCc1cc(Nc2ccc3c(c2)NCCC3(C)C)c2ccc(-c3ncccc3C(F)(F)F)nc2n1` [Compound 10]: < 1000 nM; for `CC(C)COCc1nc(Nc2ccc3c(c2)N(C)CC3(C)C)c2ccc(-c3ncccc3Cl)nc2n1` [Compound 8, [7-(3-Chloro-pyridin-2-yl)-2-isobutoxymethyl-pyrido[2,3-d]pyrimidin-4-yl]-(1,3,3-trimethyl-2,3-dihydro-1H-indol-6-yl)-amine]: < 1000 nM.
